Test results taken from patent US12285395B2, “Pharmaceutical composition for preventing or treating allodynia caused by anticancer agents” (UNIVERSITY-INDUSTRY COOPERATION GROUP OF KYUNG HEE …, priority 2018, dated 2025).

Legend:
[1] = test system: oxaliplatin-induced mechanical allodynia; test: von Frey filament test (up-down method), oxaliplatin-induced mechanical allodynia, intraperitoneal administration; assay type: in vivo, Sprague Dawley (SD) rats
Procedure: (§1) Cinnamic acid (trans-cinnamic acid, Wako Pure Chemical Industries, Osaka, Japan) and cinnamaldehyde (Wako Pure Chemical Industries, Osaka, Japan) were dissolved in 10% dimethyl sulfoxide (DMSO, Sigma) (adjusted to pH 7 with 2 M HCl and 5 M NaOH) and 1% Tween 20 (Sigma), respectively. The final volume of 10% DMSO and 1% Tween 20 used in the experiment was […] rat. Cinnamic acid and cinnamaldehyde (10 mg/kg, 20 mg/kg, and 40 mg/kg) (i.p.) at different concentrations were administered to rats with cold allodynia and mechanical allodynia.
(§2) Seven-week-old male Sprague Dawley (SD) rats (180 g to 210 g, 95 rats total, Young Bio, Gyeonggi, Korea) were fed freely with feed and water in cages. The room temperature was maintained at 23±2° C. and a 12 h/12 h contrast cycle was maintained. All procedures described in the present disclosure were approved by the Animal Care and Use Committee of Kyunghee University (KHUASP[SE]-18-153) and followed the guidelines of the International Pain Research Association.
(§3) In order to measure cold allodynia and mechanical allodynia, according to a previous method (Flatters, S J; Bennett, G J Ethosuximide reverses paclitaxel- and vincristine-induced painful peripheral neuropathy. Pain 2004, 109, 150-161), an acetone drop test and a von Frey filament test (up-down method, Linton Instrumentation, Norfolk, UK) were performed, respectively. The rats were trained for one week before the start of the experiment to adapt to the touch and the experimental procedure. The rats were stabilized for 30 min before testing in a clear plastic box (20 cm×20 cm×14 cm) with a wire mesh bottom, while not recognizing the injection of oxaliplatin and other drugs.
(§4) For the mechanical allodynia test, paw withdrawal thresholds were measured in the right hind paw using a von Frey filament. Dixon's up-down method and Chaplan's calculation method were used, and a withdrawal threshold of 15 g was measured as a cut-off. In order to confirm the effects of cinnamaldehyde and cinnamic acid at different concentrations over time, the behavioral experiment was performed before injection of cinnamic acid and cinnamaldehyde (time point of 0 min) and at time points of 30 min, 60 min, and 120 min after injection.
(§5) Oxaliplatin (Wako Pure Chemical Industries, Osaka, Japan) was dissolved in a 5% glucose solution at a concentration of 2 mg/mL and injected intraperitoneally at a dose of 6 mg/kg. The same volume of 5% glucose solution (i.p.) was administered to a control.
(§6) All data are expressed as mean±S.E.M. (Standard error of the mean). The data in FIG. 4 was analyzed by a paired t-test (FIGS. 4A and 4B) or an unpaired t-test (FIG. 4C). The data in FIGS. 5 and 6 were expressed as mean±S.E.M. and analyzed by a Bonferroni post-test after one-way ANOVA to evaluate a statistical difference between groups. The data in FIG. 7A were analyzed using Dunnett's multiple comparisons test after two-way ANOVA. The 95% reliability was considered to be statistically significant.

[2] = test system: oxaliplatin-induced cold allodynia; test: Acetone drop test, oxaliplatin-induced cold allodynia, intraperitoneal administration; assay type: in vivo, Sprague Dawley (SD) rats
Procedure: as §1, §2, §3
Acetone was dripped 5 times on the right hind paw, and the total frequency of licking and shaking of the soles was measured as an average per time.
as §4, §5, §6

spinal WDR neurons = test: In vivo extracellular recording of spinal WDR neurons after oxaliplatin; design: species or system Sprague Dawley (SD) rats; conditions: after oxaliplatin 6 mg/kg i.p. vs 5% glucose control (FIGS. 4C to 4F)
Procedure: as §2
Oxaliplatin (Wako Pure Chemical Industries, Osaka, Japan) was dissolved in a 5% glucose solution at a concentration of 2 mg/mL and injected intraperitoneally at a dose of 6 mg/kg. The same volume of 5% glucose solution (i.p.) was administered to a control. […]
All data are expressed as mean±S.E.M. (Standard error of the mean). The data in FIG. 4 was analyzed by a paired t-test (FIGS. 4A and 4B) or an unpaired t-test (FIG. 4C). The data in FIGS. 5 and 6 were expressed as mean±S.E.M. and analyzed by a Bonferroni post-test after one-way ANOVA to evaluate a statistical difference between groups. The data in FIG. 7A were analyzed using Dunnett's multiple comparisons test after two-way ANOVA. […]

SMILES | effect on oxaliplatin-induced mechanical allodynia ([1]; 10, 20 and 40 mg/kg i.p., 30, 60, 120 min after injection (FIG. 5B, FIG. 6)) | effect on oxaliplatin-induced cold allodynia ([2]; all three doses 10, 20 and 40 mg/kg i.p., 30, 60, 120 min after injection (FIG. 5A, FIG. 6)) | induction of mechanical allodynia (von Frey) ([1]; oxaliplatin 6 mg/kg i.p. single injection, day 4, p<0.001 vs before (FIG. 4B)) | induction of cold allodynia (acetone drop) ([2]; oxaliplatin 6 mg/kg i.p. single injection, day 4, p<0.001 vs before (FIG. 4A)) | number of spike responses of WDR neurons to mechanical (brush, press, pinch) and cold (acetone drop) stimulations (spinal WDR neurons)
O=CC=Cc1ccccc1 [cinnamaldehyde, reference compound] | did not have relief effects | did not have relief effects | – | – | –
O=C1[O][Pt]2([NH][C@@H]3CCCC[C@H]3[NH]2)[O]C1=O [oxaliplatin, reference compound] | – | – | significantly induced | significantly induced | significantly increased
